Test results as given in patent US11407999B2, “Pharmaceutical composition for preventing or treating angiogenesis relating ocular diseases comprising inhibitors of MCT expression or activity” (Seoul National University R&DB Foundation, priority 2019, dated 2022).

Experiments:
THP-1 macrophages = experiment: VEGF expression/secretion in lactic acid-treated PMA-differentiated THP-1 macrophages (real-time PCR, ELISA); type: cell-based, human
Experimental: (§1) HUVEC (Human umbilical vein endothelial cell; Lonza Ltd., Basel, Switzerland) was cultured in EGM-2 (endothelial growth medium-2; Lonza). A human acute monocytic leukemia THP-1 cell line was maintained in RPMI medium containing 10% FBS (Gibco). 15 ng/ml PMA (Sigma-Aldrich Corp., St. Louis, Mo., USA) and THP-1 cells were cultured under the conditions of 37° C., 5% CO2 for 2 days, and the THP-1 cells were differentiated into macrophages.
The confluent ARPE-19 monolayer cells maintained in the 24-well plate were incubated with 10 mM L(+)-lactic acid (Sigma-Aldrich Corp.) under presence or absence of α-CHC (α-cyano-4-hydroxycinnamic acid; Sigma-Aldrich) which was an MCT inhibitor (monocarboxylate transporter inhibitor) of 3 mM for a specified period. HUVEC was inoculated to a 24-well plate at a density of 1×10^5/well, and when cells reached 60% to 70% confluence, cells were exposed to 10 mM L(+)-lactic acid under presence or absence of 3 mM α-CHC. The THP-1 cells were inoculated in a 24-well plate at a density of 3)(10^5/well, and they were differentiated into macrophages by PMA treatment, and then were cultured with 20 mM L(+)-lactic acid under presence or absence of 3 mM α-CHC.
In addition, the THP-1 cells were inoculated to a 24-well plate at a density of 3)(10^5/well, and were differentiated into macrophages by PMA treatment, and then were cultured with 20 mM L(+)-lactic acid, by treating SR13800 (Tocris Bioscience, Bristol, UK) at a concentration of 0.5 to 2 μM and AR-C155858 at a concentration of 300 to 500 nM, respectively, thereto.
Cells were treated with lactic acid for 24 hours. The medium was collected and centrifuged at 587 g for 5 minutes and particles were removed and stored at −80° C. before performing ELISA.
(§2) The retina and RPE-choroid tissue were isolated from the control (naive; normal group in which CNV was not induced) CNV mouse (on day 3 after laser irradiation) or diabetic retinopathy mouse (on week 20 after STZ administration), and the isolated tissue was homogenized in ice-cold RIPA lysis buffer (Thermo Scientific, Rockford, Ill., USA) containing 1% protease inhibiting cocktail and 1% phosphatase inhibiting cocktail (GenDEPOT, Katy, Tex., USA). After centrifuging at 15,871 g for 15 minutes, the isolated supernatant was used for ELISA analysis. Secretion of VEGF was measured using ELISA Duoset system (R & D Systems, Minneapolis, Minn., USA) according to the manufacturer's instructions.
(§3) Total RNA was extracted in cells using trizole (Invitrogen, Carlsbad, Calif., USA) according to the manufacturer's instructions. RNA concentration/quality was evaluated using a nanodrop spectrophotometer (NanoDrop Technology, Wilmington, Del., USA). An equal amount of RNA was under reverse transcription to cDNA using a reverse transcription kit (Enzynomics, Daejeon, Korea), and quantitative real-time PCR (ABI PRISM 7900, Applied Biosystems) was performed using SYBR Green PCR Master Mix (Applied Biosystems, Foster City, Calif., USA) to measure gene expression. In 12 minutes at 95° C., a cycle consisting of 10 seconds at 95° C. and 30 seconds at 60° C. was performed 50 times.
Relative mRNA expression of each sample was standardized by β-actin and RPL37A, and statistics were analyzed using Student's unpaired t-test. The sequences of primers used for amplification were disclosed in the following Table 1.

[1] = system: diabetic retinopathy-induced mice; experiment: ELISA of VEGF protein in retina and RPE-choroid of STZ diabetic retinopathy-induced mice; type: in vivo, mouse; conditions: intravitreal 2 μM SR13800 2 μl, FIG. 13
Experimental: (§4) After administering STZ (streptozotocin, Sigma) to the peritoneal cavity of male C57BL6/J mice aged 7 to 8 weeks, whether high blood glucose was induced was confirmed by measuring blood glucose in 2 days. Mice of which blood glucose was induced to 400 mg/dL or more were selected, and used in the following experiment. From about 10 weeks after administering STZ, diabetic retinopathy began to appear.
(§5) At about day 140 after administrating STZ to the diabetic retinopathy-induced mice, 3 mM a-CHC 2 μl dissolved in PBS, 2 μM SR13800 2 μl dissolved in PBS, or PBS (vehicle) […] was intravitreally injected and it was used in the following experiment.
as §2

[2] = system: diabetic retinopathy-induced mice; experiment: IB4 staining of retina of STZ diabetic retinopathy-induced mice (bleeding and angiogenesis); type: in vivo, mouse; conditions: intraocular (intravitreal) injection, FIG. 14
Experimental: as §4, §5
Eyes of mice in which diabetes was induced by STZ, prepared by the method of Referential example 3 were extracted and fixed in 4% paraformaldehyde for 1 hour. The anterior segment was removed, and then the retinal tissue was cultured with FITC-conjugated isolectin B4 (Sigma) at 4° C. overnight. After washing with PBS for 10 minutes 10 times using an orbital shaker at a room temperature, the stained tissue was examined under Olympus FV1000 Confocal Scanning Scope.

ARPE-19 = experiment: VEGF expression in lactic acid-treated ARPE-19 retinal pigment epithelium cells; type: cell-based, human; conditions: ARPE-19, 10 mM lactic acid vs untreated control; FIG. 4a
Experimental: Human APRE-19 cells were obtained from ATCC (Manassas, Va., USA), and were cultured in DMEM (Dulbecco's modified Eagle's medium)/F12 medium (1:1, USA) supplemented by 10% bovine fetal serum (FBS) (Gibco, Carlsbad, Calif.), 1% penicillin-streptomycin (Gibco) and 2 mM L-glutamine (Gibco) in a wet incubator under the conditions of 37° C., 5% CO2. For ARPE-19 monolayer culture, ARPE-19 cells were inoculated in a 24-well tissue culture plate (1.53105 cells per well; Corning, Corning, N.Y., USA) and were maintained in DMEM/F12 medium in which serum was reduced (1% FBS). Confluent monolayer culture having TER (Transepithelial resistance) of 40 Ωcm2 or more was used in the experiment. […]
as §3, with “In 12 minutes at 95° C., a cycle consisting of 10 seconds at 95° C. and 30 seconds at 60° C. was performed 50 times.” left out

HUVEC [3] = experiment: Tube formation assay in HUVEC with macrophage conditioned medium; type: cell-based, human; conditions: for tube formation: FIG. 6a
Experimental: Matrigel (Corning) with reduced growth factors was thawed at 4° C. overnight. Each well of the 24-well plate cooled in advance was coated with […] and incubated at 37° C. for 40 minutes. HUVEC (3×10^4 cells) was suspended in EGM-2 medium of 100 μl, and aliquoted in a macrophage conditioned medium of 400 μl, and cultured under the condition of 37° C., 5% CO2 for 12 hours. The macrophage conditioned medium means that 20 mM lactic acid is treated for 24 hours by stimulating macrophages (or macrophages pretreated for 1 hour with α-CHC) and the medium was replaced and then the supernatant was collected.
Endothelial cell tube formation was visualized by Calcein AM (Corning) and then imaging was conducted using Leica CTR6000 fluorescence microscope (Wetzlar, Germany). The number of the capillary-like structure was quantified by manual counting of low-power field (×10). For each well, 5 independent fields were evaluated, and the mean branch number per field (magnification, ×10) was measured.

HUVEC [4] = experiment: VEGF expression in lactic acid-treated HUVEC; type: cell-based, human; conditions: 10 mM lactic acid vs untreated control, FIG. 4b
Experimental: as §1
The confluent ARPE-19 monolayer cells maintained in the 24-well plate were incubated with 10 mM L(+)-lactic acid (Sigma-Aldrich Corp.) under presence or absence of α-CHC (α-cyano-4-hydroxycinnamic acid; Sigma-Aldrich) which was an MCT inhibitor (monocarboxylate transporter inhibitor) of 3 mM for a specified period. […]
as §3, with “In 12 minutes at 95° C., a cycle consisting of 10 seconds at 95° C. and 30 seconds at 60° C. was performed 50 times.” left out

CNV mice [5] = experiment: ELISA of VEGF protein in RPE/choroid and retina of CNV mice; type: in vivo, mouse; conditions: RPE/choroid tissue of CNV mice, vs vehicle group, FIG. 8e
Experimental: (§6) Female C57BL/6J mice aged 7 to 8 weeks were anesthetized by intraperitoneally injecting a mixture of Ketamine 100 mg/kg and Xylazine 10 mg/kg, and by dropping 1% tropicamide (Alcon Laboratories Inc., Fort Worth, Tex., USA) in eyes, the pupils of the mice were expanded. Laser was irradiated in a direction of 3, 6, 9 and 12 o'clock direction of the 2 disc diameter in an optic disc by 831-nm 106 diode laser photocoagulation method (75 μm spot size, 0.1 sec duration time, 120 mW). Bubbling or pop sensing by laser photocoagulation was considered a successful rupture of the Bruch membrane. […]
as §2, with “After centrifuging at 15,871 g for 15 minutes, the isolated supernatant was used for ELISA analysis.” left out

CNV mice [6] = experiment: Immunohistological staining for F4/80 and VEGF in RPE-choroid of CNV mice; type: in vivo, mouse; conditions: day 3 after laser irradiation
Experimental: (§7) Female C57BL/6J mice aged 7 to 8 weeks were anesthetized by intraperitoneally injecting a mixture of Ketamine 100 mg/kg and Xylazine 10 mg/kg, and by dropping 1% tropicamide (Alcon Laboratories Inc., Fort Worth, Tex., USA) in eyes, the pupils of the mice were expanded. Laser was irradiated in a direction of 3, 6, 9 and 12 o'clock direction of the 2 disc diameter in an optic disc by 831-nm 106 diode laser photocoagulation method (75 μm spot size, 0.1 sec duration time, 120 mW). Bubbling or pop sensing by laser photocoagulation was considered a successful rupture of the Bruch membrane.
(§8) To evaluate the anti-angiogenic effect by blocking lactic acid intake in macrophages, on day 1 after laser irradiation, when the macrophages began to infiltrate the laser irradiation site (image area), 3 mM α-CHC 2 μl or PBS (vehicle) 2 μl dissolved in PBS was intravitreally injected, and it was used in the following experiment.
Laser was irradiated to mice by the method of Referential example 2, and on day 3, eyes were extracted from mice, and fixed in 4% paraformaldehyde for 1 hour. After removing the retina, the RPE-choroid tissue was cultured with rat anti-mouse F4/80 (Bio-Rad, Richmond, Calif., USA) and APC conjugated anti-mouse VEGF (C-1; Santa Cruz Biotechnology, Inc.) at […] overnight. […] The regions of infiltrated macrophages and secreted VEGF were measured using ImageJ software.

CNV mice [7] = experiment: Flow cytometry for VEGF in macrophages of CNV mice after intravitreal injection; type: in vivo, mouse; conditions: intravitreal 3 mM α-CHC 2 μl on day 1 after laser, vs vehicle group, FIG. 8a, 8b
Experimental: as §7, §8
After laser irradiation, on day 1, 3, 7, 14 and 21, laser-irradiated eyes were extracted. […]
Cells labeled using LSR-II cytometer (BD Biosciences, San Jose, Calif., USA) were analyzed and data were analyzed using FlowJo software (version 7.6.2, Ashland, Oreg., USA).

CNV mice [8] = experiment: Quantification of choroidal neovascularization (IB4 staining) in CNV mice; type: in vivo, mouse; conditions: RPE-choroid tissue of CNV mice, day 7 after laser irradiation; vehicle group 141,472.9±49,186; FIG. 8f, 8g
Experimental: as §6
For evaluation of CNV, on day 1 after laser irradiation, PBS or α-CHC was injected in eyes, and in 6 days (on day 7 after laser irradiation), the RPE-choroid tissue isolated from the eyes of CNV mice was immunohistologically stained with Alexa-Fluor 594-conjugated IB4 (isolectin B4) (Molecular Probes) to visualize CNV. Images obtained by Olympus FV1000 Confocal Scanning Scope were treated in IMARIS imaging software (Bitplane, Zurich, Switzerland) to quantify the IB4-positive CNV amount.

## Cc1n[nH]c(C)c1Cc1sc2c(c1C(=O)N1C[C@H](O)CO1)c(=O)n(C)c(=O)n2CC(C)C [AR-C155858]
THP-1 macrophages; THP-1 macrophages, 20 mM lactic acid plus AR-C155858 300 to 500 nM, FIG. 9b
  VEGF expression increased by lactic acid: does not show significant changes

## CC(C)Cc1nn(C)c(=O)c2c(SCCCO)n(Cc3cccc4ccccc34)cc12 [SR13800]
THP-1 macrophages; THP-1 macrophages, 20 mM lactic acid plus SR13800 0.5 to 2 μM vs only lactic acid, dependent on inhibitor concentration, FIG. 9a
  VEGF secretion: reduced
[1]; RPE-choroid tissue
  VEGF expression in the RPE-choroid tissue: did not affect
[1]; retinal tissue
  VEGF expression increased in the retinal tissue by induction of diabetic retinopathy: significantly reduced
[2]
  bleeding and angiogenesis increased in the diabetic retinopathy model: significantly reduced

## CC(O)C(=O)O (stereo not drawn) [lactic acid, L(+)-lactic acid]
THP-1 macrophages; PMA-differentiated THP-1 macrophages, 20 mM lactic acid vs untreated control, FIG. 4c
  increase of VEGF expression after treatment of lactic acid: ≥ 3 times
THP-1 macrophages; THP-1 macrophages, 24 hours, FIG. 5
  increase of VEGF secretion after stimulating with lactic acid: about 5 times
ARPE-19
  gene transcriptome and protein expression for VEGF: did not change significantly
HUVEC [3]; HUVEC with supernatant of lactic acid-stimulated macrophages vs lactic acid untreated group, FIG. 6b
  increase of number of branches: about 5 times
HUVEC [3]; HUVEC with supernatant of macrophages stimulated with 20 mM lactic acid
  tube formation: significantly increased
HUVEC [4]
  gene transcriptome and protein expression for VEGF: did not change significantly

## N#CC(=Cc1ccc(O)cc1)C(=O)O [α-CHC, α-cyano-4-hydroxycinnamic acid]
THP-1 macrophages; THP-1 macrophages, lactic acid plus α-CHC vs only lactic acid, dependent on inhibitor concentration, FIG. 5
  VEGF secretion (VEGF expression): reduced
[2]
  bleeding and angiogenesis increased in the diabetic retinopathy model: reduced
HUVEC [3]; HUVEC with supernatant of macrophages pretreated with α-CHC then lactic acid, vs only lactic acid, FIG. 6b
  number of branches: significantly reduced
HUVEC [3]; HUVEC with supernatant of macrophages pretreated with α-CHC then lactic acid
  tube formation: reduced
CNV mice [5]
  amount of VEGF protein increased by CNV induction: significantly reduced
CNV mice [6]; intravitreal injection, vehicle group 523,378±165,071, FIG. 8c, 8d
  VEGF positive region in the F4/80 stained macrophage region: 383,738±196,716 μm2
CNV mice [6]; vs vehicle group, FIG. 8d
  area of infiltrated macrophages: no significant difference
CNV mice [7]
  VEGF expression (relative mean fluorescence intensity): significantly reduced
CNV mice [8]
  IB4-positive endothelial cells (CNV amount): 74,160.6±12,339.5 μm^3
